The values below are quoted from earlier work in patent US6803057B2, “Hydrogen peroxide disinfectant with increased activity” (Virox Technologies Inc., priority 1998, dated 2004).

Each structure is given as a SMILES string. Read-outs that look alike come from different tables or passages of the source.

The test system of data set [1] is Salmonella typhimurium and Listeria monocytogenes.

As for `CCCCCCCCCCCCc1ccc(S(=O)(=O)O)cc1` [DDBSA, dodecyl benzene sulfonic acid], in data set [1], the “concentration effective in sanitizing” value was no less than 200 ppm.

Take `OO` [hydrogen peroxide]: the “time required to disinfect surfaces contaminated with staphylococcus aureus” value is 60 min with staphylococcus aureus (0.1 wt./wt. % aqueous solution) and 0.333 min in the data set with staphylococcus aureus (25.8 wt./wt. % aqueous solution). Moreover, the corrosivity / irritancy entry was “non-corrosive and non-irritating” (1-3 wt./wt. % aqueous solution); “non-corrosive but an eye irritant” (3-7 wt./wt. % aqueous solution); “corrosive” (above about 8 wt./wt. % aqueous solution).
